From patent US9101613B2, “Methods for treating neurological disease” (Neurim Pharmaceuticals (1991) Ltd., priority 2006, dated 2015)

Columns and labels:
PC12 cells = assay: Glutamate-induced loss of cell viability in PC12 cells (MTT); type: cell-based; conditions: 1 uM, without glutamate
Experimental: For the cell viability assays, 24 h after seeding in 96-well plates, the cultures were pretreated with N-[2-(5-methoxy-indol-3-yl)-ethyl]-comanilamide (100 pm, 1 nM, 10 nM, 100 nM, 1 uM and 10 uM) or melatonin (1 uM) for 0 h before exposure to 4 mM glutamate. After 24 h incubation, cellular viability was evaluated by MTT assay.
PC12 cell viability was determined by the conventional 3-(4,5-dimethylthiazol-2-yl)-2,5-diphenyltetrazolium bromide (MTT) assay. PC12 cells were treated with MTT solution (0.5 mg/ml) and were then incubated at 37° C. for 4 hrs. The medium was removed and 150 μl DMSO/well was added to dissolve formazan. The absorbance at 570 nm was recorded using an enzyme-linked immunosorbent assay reader and the percentage of cell growth inhibition was calculated as follows: Cell viability (%)=A570 (treatment)/A570 (control)×100.

3T3-L1 adipocytes = assay: 2-[3H]-deoxy-d-glucose uptake in FFA-treated 3T3-L1 adipocyte model; type: cell-based
Experimental: Adipocytes were glucose-starved for 1 h in Hepes-salt buffer containing 2% FFA-free BSA. FFA (free fatty acids) were then added to the cells at the indicated concentrations (300 μM) for the indicated times (3 h). 10 min before the end of the FFA treatment, the cells were stimulated with insulin (20 nM)/melatonin (10 nM)/test compounds (10 nM) at 37° C. 2-[^3H]-deoxy-d-glucose at 1 μCi/mL and 0.1 mM unlabeled 2-deoxyglucose in KRP-HEPES buffer was added and cells were incubated for 10 min at room temperature. Non-specific glucose uptake was measured by parallel incubations in the presence of 10 μM cytochalasin B, which blocks transporter-mediated glucose uptake, and was subtracted from total uptake in each assay. Cells were then washed three times with ice-cold phosphate buffered saline (PBS) and solubilized in 1M NaOH for 20 minutes. The sample was then counted using a scintillation counter. 2-[^3H]-deoxy-d-glucose uptake was assayed in triplicates for each condition in at least 3 independent experiments. 2-[^3H]-deoxy-d-glucose uptake (counts per minute-cpm) are presented as mean+SE of triplicates in a representative experiment or results of three independent experiments. ANOVA test was used with significance of P<0.05 (Table 7).

CD1 mice = assay: Motimeter assay (motor activity and rearing); type: in vivo; conditions: 100 mg/kg i.p.
Experimental: Mice were starved for 16 hrs before treatment. Male CD1 mice, weighing 25-30 g, were treated intraperitoneally with melatonin, N-[2-(5-methoxy-indol-3-yl)-ethyl]-comanilamide or N-[2-(5-methoxy-indol-3-yl)-ethyl]-commenamide in a dose of 100 mg/kg. The horizontal (i.e. locomotion) and vertical (i.e. rearing) movements were measured for 5 minutes two times, 30 and 60 min after treatment. Eight mice/group were used. The 4-channel activity meter is a square-shaped frame containing transparent infra-red permeable acrylic cages. The frames feature two pairs of light-beam strips for measuring horizontal movements, and two pairs for measuring rearing. Each strip is equipped with 16 infra-red sensors.

MT-3 receptor = target: T1, MT-3 receptor (Mesocricetus auratus, UniProt A0ABM2YAB8); assay: 125I-melatonin binding in hamster brain membranes, MT-3
T1 construct: from tissue; host or cells: hamster brain membranes
T1 sequence (A0ABM2YAB8 1-231): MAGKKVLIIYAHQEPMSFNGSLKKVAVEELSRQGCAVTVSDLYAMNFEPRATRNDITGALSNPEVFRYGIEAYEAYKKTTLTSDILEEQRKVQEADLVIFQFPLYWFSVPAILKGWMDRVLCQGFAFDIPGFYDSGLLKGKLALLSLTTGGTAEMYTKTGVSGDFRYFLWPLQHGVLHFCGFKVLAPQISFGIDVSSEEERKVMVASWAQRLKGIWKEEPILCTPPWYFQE
Experimental: Aliquots of suspended membranes of human recombinant CHP-K1 (Chinese hamster ovary) cells stably expressing human melatonin-1 or melatonin-2 (MT-1 or MT-2) receptors or of hamster brain (MT-3) were incubated at 25° C. with 0.05 nM ^125I-melatonin in buffer (25 mM HEPES, pH 7.4, 5 mM MgCl2, 1 mM CaCl2, 0.5% BSA) or with 0.1 nM for MT-3 alone or in the presence of 1 nM, 10 nM, 0.1 μM, 1 μM and 10 μM of test substances N-[2-(5-methoxy-indol-3-yl)-ethyl]-commenamide, N-[2-(5-methoxy-indol-3-yl)-ethyl]-comanilamide, N-[2-(5-methoxy-indol-3-yl)-ethyl]-coumalylamide, N-[2-(5-methoxy-indol-3-yl)-ethyl]-2-methoxy-commenamide, N-[2-(5-methoxy-indol-3-yl)-ethyl]-chelidonamide, O-[2-(5-methoxy-indol-3-yl)-ethyl]-comenic ester, N-[2-(5-methoxy-indol-3-yl)-ethyl]-2-Pyrone-6-carboxamide and N-[2-(2-bromo-5-methoxy-indol-3-yl)-ethyl]-coumalylamide for 3 hours for MT-1, 4 hours for MT-2 and 30 min for MT-3. The binding reaction was terminated and the membranes were washed with 4 ml of ice-cold HEPES buffer by vacuum filtration. Membranes were then collected, and the filters containing the bound ^125I-melatonin were assayed for the amount of radioactivity in a […]. Non-specific binding was evaluated using a reaction with 1 μM 6-chloromelatonin (MT-1 and MT-2) or 30 μM melatonin (MT-3).

Structure (SMILES): COc1ccc2[nH]cc(CCNC(C)=O)c2c1 [Melatonin, N-acetyl-5-methoxy-tryptamine, reference compound]
- effect on cell viability without glutamate (PC12 cells): had no effect on the cell viability
- effect on glucose transport in FFA-treated adipocytes (3T3-L1 adipocytes; FFA-impaired insulin signaling): improved glucose transport
- 2-[3H]-deoxy-d-glucose uptake (cpm) (3T3-L1 adipocytes; Insulin 20 nM + FFA 300 μM (3 h) + substance 10 nM): 1489 cpm
- effect on motor activity and rearing (CD1 mice; 30-35 min and 60-65 min after treatment): did not change significantly the motor activity and rearing
- motor activity (horizontal movement) changes (%) 30 min (CD1 mice; 30 min, vs vehicle): −26.5%
- motor activity (horizontal movement) 30 min Means ± SE (CD1 mice; 30 min after treatment, 5 min measurement): 316.1 ± 45.5
- motor activity (horizontal movement) changes (%) 60 min (CD1 mice; 60 min, vs vehicle): −19.0%
- motor activity (horizontal movement) 60 min Means ± SE (CD1 mice; 60 min after treatment, 5 min measurement): 256.1 ± 27.3
- IC50 (MT-3 receptor; 0.1 nM 125I-melatonin, 30 min, read-out: MT-3 receptor binding IC50): 47 nM
- Ki (MT-3 receptor; 0.1 nM 125I-melatonin, 30 min, read-out: MT-3 receptor binding KI): 46 nM
- inhibition at 10 µM (MT-3 receptor; read-out: MT-3 receptor binding % inhibition by 10 μM): 100%
